Reference: ChEMBL document CHEMBL4371004, “A-C Estrogens as Potent and Selective Estrogen Receptor-Beta Agonists (SERBAs) to Enhance Memory Consolidation under Low-Estrogen Conditions” (J Med Chem, 2018)
The source made the active and inactive calls. The calls are words filed in the database; no cut-off is given here.

Legend:
[1] = target: T1, Androgen receptor (Homo sapiens) (UniProt P10275); assay: Agonist activity at GAL4 DNA binding domain fused androgen receptor ligand binding domain (unknown origin) at 0.25 to 25 uM by FRET-based assay
T1 sequence (whole entry): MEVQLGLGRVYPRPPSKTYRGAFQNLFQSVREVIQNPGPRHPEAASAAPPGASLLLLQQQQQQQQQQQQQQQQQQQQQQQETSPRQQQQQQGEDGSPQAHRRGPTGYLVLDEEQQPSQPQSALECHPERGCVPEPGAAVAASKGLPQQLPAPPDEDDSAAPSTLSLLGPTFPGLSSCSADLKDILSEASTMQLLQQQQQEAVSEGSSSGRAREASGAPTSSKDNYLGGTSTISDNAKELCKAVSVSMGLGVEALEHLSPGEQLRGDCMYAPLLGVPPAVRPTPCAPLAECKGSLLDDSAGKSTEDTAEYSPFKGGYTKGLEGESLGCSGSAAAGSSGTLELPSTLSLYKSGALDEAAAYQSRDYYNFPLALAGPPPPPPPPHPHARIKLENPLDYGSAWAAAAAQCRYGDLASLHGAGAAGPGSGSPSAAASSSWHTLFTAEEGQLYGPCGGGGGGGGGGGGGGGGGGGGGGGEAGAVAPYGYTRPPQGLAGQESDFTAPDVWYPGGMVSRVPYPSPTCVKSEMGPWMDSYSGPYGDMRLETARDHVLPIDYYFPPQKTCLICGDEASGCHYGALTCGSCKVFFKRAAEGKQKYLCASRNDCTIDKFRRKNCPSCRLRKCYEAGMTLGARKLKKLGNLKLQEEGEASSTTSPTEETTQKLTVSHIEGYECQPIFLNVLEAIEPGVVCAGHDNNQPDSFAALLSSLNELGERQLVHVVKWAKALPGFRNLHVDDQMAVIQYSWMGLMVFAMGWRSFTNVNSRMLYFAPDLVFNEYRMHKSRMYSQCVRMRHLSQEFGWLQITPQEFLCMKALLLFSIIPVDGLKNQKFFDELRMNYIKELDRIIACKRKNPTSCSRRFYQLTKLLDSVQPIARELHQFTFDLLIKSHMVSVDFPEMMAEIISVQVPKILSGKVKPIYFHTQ

[2] = target: T2, Thyroid hormone receptor beta (Homo sapiens) (UniProt P10828); assay: Agonist activity at GAL4 DNA binding domain fused thyroid hormone receptor beta (unknown origin) at 0.25 to 25 uM by FRET-based assay
T2 sequence (whole entry): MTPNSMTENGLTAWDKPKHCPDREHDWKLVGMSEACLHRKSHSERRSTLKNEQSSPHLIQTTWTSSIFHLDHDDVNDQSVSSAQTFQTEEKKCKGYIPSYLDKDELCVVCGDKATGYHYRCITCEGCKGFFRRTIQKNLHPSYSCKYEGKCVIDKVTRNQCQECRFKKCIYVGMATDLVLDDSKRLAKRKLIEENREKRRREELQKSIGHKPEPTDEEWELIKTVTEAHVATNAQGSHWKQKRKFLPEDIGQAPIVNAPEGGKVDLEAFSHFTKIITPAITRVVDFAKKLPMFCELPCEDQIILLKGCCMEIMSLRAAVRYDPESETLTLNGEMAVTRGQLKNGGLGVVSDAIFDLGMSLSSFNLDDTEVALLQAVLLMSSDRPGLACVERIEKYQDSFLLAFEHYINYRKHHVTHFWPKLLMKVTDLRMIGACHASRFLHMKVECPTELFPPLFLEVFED

[3] = target: T3, Vitamin D3 receptor (Homo sapiens) (UniProt P11473); assay: Agonist activity at GAL4 DNA binding domain fused VDR ligand binding domain (unknown origin) at 0.25 to 25 uM by FRET-based assay
T3 sequence (whole entry): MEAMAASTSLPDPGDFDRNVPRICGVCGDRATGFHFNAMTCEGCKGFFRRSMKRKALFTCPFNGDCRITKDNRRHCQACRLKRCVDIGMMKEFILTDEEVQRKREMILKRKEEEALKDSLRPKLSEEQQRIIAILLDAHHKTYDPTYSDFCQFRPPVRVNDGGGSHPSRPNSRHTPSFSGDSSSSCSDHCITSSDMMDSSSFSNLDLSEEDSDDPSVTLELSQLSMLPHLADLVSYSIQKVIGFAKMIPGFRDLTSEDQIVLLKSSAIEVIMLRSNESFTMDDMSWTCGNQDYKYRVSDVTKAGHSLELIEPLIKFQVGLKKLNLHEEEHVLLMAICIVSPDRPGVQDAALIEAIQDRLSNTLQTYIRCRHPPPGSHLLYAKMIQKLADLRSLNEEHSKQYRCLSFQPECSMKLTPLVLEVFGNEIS

[4] = target: T4, Cytochrome P450 1A2 (Homo sapiens, UniProt P05177); assay: Inhibition of human recombinant CYP1A2 up to 100 uM preincubated for 10 mins followed by NADPH addition and measured after 10 to 30 mins by P450-Glo luminescence assay; format: ADME; conditions: recombinant enzyme
T4 sequence (P05177 whole entry): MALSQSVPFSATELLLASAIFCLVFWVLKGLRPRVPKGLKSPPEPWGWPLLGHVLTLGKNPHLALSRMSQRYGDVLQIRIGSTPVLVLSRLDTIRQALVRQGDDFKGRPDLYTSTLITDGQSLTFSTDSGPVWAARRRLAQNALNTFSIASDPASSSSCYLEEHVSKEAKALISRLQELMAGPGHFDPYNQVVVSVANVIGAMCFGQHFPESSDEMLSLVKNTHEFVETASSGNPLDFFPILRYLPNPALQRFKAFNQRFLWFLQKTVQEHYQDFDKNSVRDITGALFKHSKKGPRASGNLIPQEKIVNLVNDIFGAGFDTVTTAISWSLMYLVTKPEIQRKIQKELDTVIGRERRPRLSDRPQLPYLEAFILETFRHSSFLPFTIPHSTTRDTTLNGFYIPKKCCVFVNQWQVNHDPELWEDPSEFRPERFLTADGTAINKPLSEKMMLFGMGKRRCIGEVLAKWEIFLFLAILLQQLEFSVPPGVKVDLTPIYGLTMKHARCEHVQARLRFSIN

[5] = test system: Mus musculus; assay: Memory enhancement effect in C57BL/6 mouse assessed as time spent with novel object at 1 ng administered as dorsal hippocampal infusion by novel object recognition test; format: functional
[6] = test system: Mus musculus; assay: Memory enhancement effect in C57BL/6 mouse assessed as time spent with moved object at 0.5 mg/kg, po administered via gavage by object recognition test; format: functional
[7] = test system: Mus musculus; assay: Memory enhancement effect in C57BL/6 mouse assessed as time spent with novel object at 5 mg/kg, po administered via gavage by novel object recognition test; format: functional

OC[C@H]1CC[C@H](c2ccc(O)cc2)CC1 was tested, and the Activity [1] was “inactive”, the Activity [2] was “inactive” and the Activity [3] was “inactive”. For the same compound, the “inhibition (INH)” value [4] was “Not Active”, the Time [5] was 1.08 s and the Time [6] was 3.65 s. For the same compound, the Time [7] was 2.36 s.
